Test: xn = mol fraction of the nth substance listed
Settings: 101 kPa

COCCO + CCOS(=O)(=O)[O-].CC[n+]1ccn(C)c1
x2 = 0
Settings | speed of sound [m/s]
298.15 K | 1344
308.15 K | 1309.2
318.15 K | 1274.5
328.15 K | 1240.1

CCOS(=O)(=O)[O-].CC[n+]1ccn(C)c1 + COCCO
speed of sound [m/s]
Settings | 298.15 K | 308.15 K | 318.15 K | 328.15 K
x1 = 0.049 | 1381 | – | 1316.1 | 1282.9
x1 = 0.0819 | 1403 | – | 1340.4 | 1308
x1 = 0.1453 | 1441 | 1412 | 1381.9 | –
x1 = 0.1765 | 1457.4 | 1429 | 1399.5 | 1369.2
x1 = 0.2557 | 1494.5 | – | 1438.7 | 1410
x1 = 0.3386 | – | 1500.6 | 1472.9 | –
x1 = 0.4472 | – | 1537.2 | 1510.3 | 1484.3
x1 = 0.5453 | 1592.2 | 1565.7 | 1539.3 | 1514.2
x1 = 0.6466 | 1617.7 | – | 1565.9 | 1541.3
x1 = 0.7562 | 1641.6 | – | 1591.4 | 1567
x1 = 0.8206 | 1654 | 1629.2 | 1604.6 | 1580.4
x1 = 0.8868 | – | 1641 | – | –
x1 = 0.951 | 1674.9 | 1650.6 | 1626.6 | 1602.8
x1 = 1 | 1680.8 | 1656.4 | – | 1608.9

— a compilation of properties of binary mixtures (doi:10.1007/s10953-016-0465-y)
